From PMC5839409, “Targeting intracellular B2 receptors using novel cell-penetrating antagonists to arrest growth and induce apoptosis in human triple-negative breast cancer” (Oncotarget, 2018)

Experiments:
MDA-MB-231 cells [1] = assay: Anchorage-dependent clonogenic assay; format: cell-based, human; details: 1 to 100 µM (FR173657 up to 25 µM), 10-14 days
Method: MDA-MB-231 cells were plated at 200 cells/well in a six-well dish in 2 ml DMEM medium containing 10% FBS. […] After 10 to 14 days, colonies were fixed and stained with 0.5% methylene blue in 50% ethanol. Excess of staining solution was removed carefully with tap water and the plates were dried overnight. Colony counting and densitometric analyses (to measure total colony numbers and surface areas) were performed using the Image Pro Plus 5.1 software.

MDA-MB-231 cells [2] = assay: MTT proliferation assay; format: cell-based, human; details: B2R shRNA knockdown MDA-MB-231 cells vs scrambled shRNA
Method: Cell proliferation assay on MDA-MB-231 cells was determined with colorimetric MTT as we described. Briefly, cells were seeded in a 96 wells plate at 2,000 cells/well in DMEM media supplemented with 10% FBS for 24h at 37°C. Cells were then incubated with and without the B2RAs at the indicated concentrations for the time shown. At the end of treatment period, MTT (0.25 mg/ml) was added to the cells and incubated for 1h30 at 37°C. Thereafter, the cell medium was removed, the formazan product solubilized in acidified isopropanol (100 µl of 1N HCl/anhydrous isopropanol 1:25) and the absorbance determined at 570 nm with an ELISA microplate reader (Spectra Max Plus, Molecular Devices, Sunnyvale, CA). For assessing the cytotoxicity of B2RAs and chemotherapeutic agents (carmustine, doxorubicin, carboplatin, temozolomide and paclitaxel), cells were grown to confluency in multi-well plates and exposed to starving media (DMEM without FBS) for 24h before beginning of the antagonist treatment. Cells were then incubated with MTT and treated exactly as described above. Cell viability was expressed as a percentage of optical density (OD) values obtained upon treatment relative to control.

MDA-MB-231 cells [3] = assay: cDNA SuperArray Human Signal Transduction Pathway Finder analysis; format: cell-based; details: 10 μM / 3h, relative to untreated controls
Text: cDNA SuperArray analysis manufacturer ’s instructions (SuperArray Bioscience). For cDNA microarray analysis, equal amounts of cRNA (3
The GEArray Q-series array of Human Signal µg) were biotinylated, then the probes were hybridized Transduction Pathway Finder (catalog OHS-014; onto the membranes containing specific genes for several SuperArray Bioscience) was used to quantify the transduction pathways. After extensive washing, specific expression of 113 genes representative of 18 signal hybridization onto the membranes was detected by transduction pathways. […] A […]
cells were incubated or not with FR173657 (10 µM) in fold change cutoff of ≥1.5 as compared to control cells DMEM for 3 hours at 37°C. At the end of treatments, cells was set to identify regulated genes. were collected, lysed and total RNA was purified using an ArrayGrade Total RNA Isolation kit according to the Supplementary Table 1: Marked gene expression changes in FR173657-treated MDA-MB-231 cells relative to untreated controls
Description GenBank acc. Symbol Fold change
NLR family, apoptosis inhibitory protein NM_004536 NAIP 1,50
Cyclin-dependent kinase inhibitor 1B (p27, Kip1) NM_004064 CDKN1B 1,70
Cyclin-dependent kinase inhibitor 2B (p15, inhibits CDK4) NM_004936 CDKN2B 1,80 Cyclin-dependent kinase inhibitor 2C (p18, inhibits CDK4) NM_078626 CDKN2C 2,20 Caudal type homeobox transcription factor 1 NM_001804 CDX1 1,80
CCAAT/enhancer binding protein (C/EBP), beta NM_005194 CEBPB 1,70 […]
Platelet/endothelial cell adhesion molecule (CD31 antigen) NM_000442 PECAM1 3,90 Nitric oxide synthase 2A (inducible, hepatocytes) NM_000625 NOS2A –1,50 […]
Overall, the data generated from the transcriptional profiling study are, in general, in good agreement with the strong anticancer activity of FR173657 observed in MDA-MB-231 cells.

human B2R = target: T1, human B2R (Homo sapiens, UniProt P30411); details: living adherent HEK-293T cells transiently transfected with hB2R; means ± s.e.m.; ref [34]; read-out: Binding hB2R-HEK293T IC50; cited from earlier work
T1 construct: expressed in transfected cells; host or cells: HEK-293T
T1 sequence (P30411 1-391): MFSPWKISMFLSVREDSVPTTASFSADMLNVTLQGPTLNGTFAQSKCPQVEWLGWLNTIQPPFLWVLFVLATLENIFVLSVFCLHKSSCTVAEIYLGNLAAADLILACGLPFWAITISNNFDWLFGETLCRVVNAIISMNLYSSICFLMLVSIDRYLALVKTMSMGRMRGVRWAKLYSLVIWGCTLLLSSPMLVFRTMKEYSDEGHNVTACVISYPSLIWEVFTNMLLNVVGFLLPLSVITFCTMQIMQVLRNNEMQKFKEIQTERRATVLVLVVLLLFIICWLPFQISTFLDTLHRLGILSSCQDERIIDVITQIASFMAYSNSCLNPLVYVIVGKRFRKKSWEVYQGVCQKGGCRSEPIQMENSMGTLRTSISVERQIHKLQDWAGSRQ

SMILES: CC(=O)Nc1ccc(/C=C/C(=O)NCC(=O)N(C)c2ccc(Cl)c(COc3cccc4ccc(C)nc34)c2Cl)cn1 [FR 173657]
- colony formation (antagonist effect) (MDA-MB-231 cells [1]): concentration-responsive clonal repression
- cytostatic activity after B2R downregulation (MDA-MB-231 cells [2]): significantly attenuated
- Fold change BMP4 gene expression (MDA-MB-231 cells [3]): 1,50 fold
- Fold change CCL20 gene expression (MDA-MB-231 cells [3]): 1,50 fold
- Fold change CDKN1B (p27, Kip1) gene expression (MDA-MB-231 cells [3]): 1,70 fold
- Fold change CDKN2B gene expression (MDA-MB-231 cells [3]): 1,80 fold
- Fold change CDKN2C gene expression (MDA-MB-231 cells [3]): 2,20 fold
- Fold change CDX1 gene expression (MDA-MB-231 cells [3]): 1,80 fold
- Fold change CEBPB gene expression (MDA-MB-231 cells [3]): 1,70 fold
- Fold change CTSD gene expression (MDA-MB-231 cells [3]): 1,60 fold
- Fold change CXCL9 gene expression (MDA-MB-231 cells [3]): 1,70 fold
- Fold change EGR1 gene expression (MDA-MB-231 cells [3]): 1,60 fold
- Fold change HOXB1 gene expression (MDA-MB-231 cells [3]): 1,60 fold
- Fold change MMP10 gene expression (MDA-MB-231 cells [3]): 3,50 fold
- Fold change NAIP gene expression (MDA-MB-231 cells [3]): 1,50 fold
- Fold change NOS2A gene expression (MDA-MB-231 cells [3]): –1,50 fold
- Fold change PECAM1 gene expression (MDA-MB-231 cells [3]): 3,90 fold
- Fold change TFRC gene expression (MDA-MB-231 cells [3]): –1,50 fold
- IC50 (human B2R): 37 ± 1.6 nM
